Tests used:
southern crabgrass [1] = assay: Test Example 5: herbicidal effect by foliage application, plastic box (Table 20, symbol F); type: in vivo, southern crabgrass (Digitaria ciliaris); conditions: foliage application, 320 g/ha, evaluated three weeks after application
Outline: (§1)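 Sow seeds spot-wise in sterilized diluvial soil; cover with ~1.5 cm soil. Grow 14 days in greenhouse, 25° C. to 30° C. Spray foliage with emulsion diluted to predetermined amount. Rate effect after 3 weeks.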

southern crabgrass [2] = assay: Test Example 4: herbicidal effect by soil treatment (Table 19, symbol F); type: in vivo, southern crabgrass (Digitaria ciliaris); conditions: for F: southern crabgrass, herbicidal effect rating: amount of applied herbicide 320 g/ha
Outline: (§2)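 Applied as a water-diluted emulsion, the compound was sprayed onto soil covering newly sown seeds. Evaluation came three weeks after application, in a greenhouse held at 25° C. to 30° C.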

persian speedwell [3] = assay: Test Example 5: herbicidal effect by foliage application, plastic box (Table 20, symbol R); type: in vivo, Persian speedwell (Veronica persica); conditions: foliage application, 320 g/ha, evaluated three weeks after application
Outline: as §1

redroot pigweed [4] = assay: Test Example 4: herbicidal effect by soil treatment (Table 19, symbol N); type: in vivo, redroot pigweed (Amaranthus retroflexus); conditions: for N: redroot pigweed, herbicidal effect rating: amount of applied herbicide 320 g/ha
Outline: as §2

redroot pigweed [5] = assay: Test Example 5: herbicidal effect by foliage application, plastic box (Table 20, symbol N); type: in vivo, redroot pigweed (Amaranthus retroflexus); conditions: foliage application, 320 g/ha, evaluated three weeks after application
Outline: as §1

blackgrass = assay: Test Example 4: herbicidal effect by soil treatment (Table 19, symbol J); type: in vivo, blackgrass (Alopecurus myosuroides); conditions: for J: blackgrass, herbicidal effect rating: amount of applied herbicide 320 g/ha
Outline: as §2

persian speedwell [6] = assay: Test Example 4: herbicidal effect by soil treatment (Table 19, symbol R); type: in vivo, Persian speedwell (Veronica persica); conditions: for R: persian speedwell, herbicidal effect rating: amount of applied herbicide 320 g/ha
Outline: as §2

oval-leafed pondweed = assay: Test Example 2: herbicidal activity, application during weed generation under submerged conditions (Table 17, symbol C); type: in vivo, oval-leafed pondweed (Monochoria vaginalis); conditions: AAH 320 g/ha; application during weed generation, submerged conditions
Outline: (§3)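 In this pot test, flooded alluvial soil (water depth 4 cm) holds all three species sown as a mixture. Once seedlings have one to two leaves, the compound's emulsion, thinned with water to the intended dose, is poured on the water; grading follows after three weeks on the earlier criteria.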

chickweed = assay: Test Example 4: herbicidal effect by soil treatment (Table 19, symbol P); type: in vivo, common chickweed (Stellaria media); conditions: for P: chickweed, herbicidal effect rating: amount of applied herbicide 320 g/ha
Outline: as §2

barnyard grass = assay: Test Example 5: herbicidal effect by foliage application, plastic box (Table 20, symbol H); type: in vivo, barnyard grass (Echinochloa crus-galli); conditions: foliage application, 320 g/ha, evaluated three weeks after application
Outline: as §1

late watergrass = assay: Test Example 1: herbicidal activity, application before weed generation under submerged conditions (Table 16, symbol A); type: in vivo, late watergrass (Echinochloa oryzicola); conditions: 320 g/ha applied herbicide
Outline: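 Alluvial soil was flooded to 4 cm depth, weed seeds were sown mixed and 2.5-leaf rice seedlings were transplanted. On sowing day, the compound's emulsion, diluted in water to a set dose, was applied to the water surface. Plants grew at 25–30 °C and were scored 0–5 after three weeks.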

Japanese bulrush = assay: Test Example 2: herbicidal activity, application during weed generation under submerged conditions (Table 17, symbol B); type: in vivo, Japanese bulrush (Schoenoplectus juncoides); conditions: AAH 320 g/ha; application during weed generation, submerged conditions
Outline: as §3

lambsquarters = assay: Test Example 5: herbicidal effect by foliage application, plastic box (Table 20, symbol O); type: in vivo, lambsquarters (Chenopodium album); conditions: foliage application, 320 g/ha, evaluated three weeks after application
Outline: as §1

green foxtail = assay: Test Example 4: herbicidal effect by soil treatment (Table 19, symbol G); type: in vivo, green foxtail (Setaria viridis); conditions: for G: green foxtail, herbicidal effect rating: amount of applied herbicide 320 g/ha
Outline: as §2

Italian ryegrass [7] = assay: Test Example 4: herbicidal effect by soil treatment (Table 19, symbol K); type: in vivo, Italian ryegrass (Lolium multiflorum); conditions: for K: Italian ryegrass, herbicidal effect rating: amount of applied herbicide 320 g/ha
Outline: as §2

Italian ryegrass [8] = assay: Test Example 5: herbicidal effect by foliage application, plastic box (Table 20, symbol K); type: in vivo, Italian ryegrass (Lolium multiflorum); conditions: foliage application, 320 g/ha, evaluated three weeks after application
Outline: as §1

| Compound | herbicidal effect on F: southern crabgrass (southern crabgrass [1]) | herbicidal effect on R: persian speedwell (persian speedwell [3]) | herbicidal effect on N: redroot pigweed (redroot pigweed [5]) | herbicidal effect rating, C: oval-leafed pondweed (oval-leafed pondweed) | herbicidal effect on H: barnyard grass (barnyard grass) | Herbicidal effect on A: late watergrass (grade 0-5) (late watergrass) | herbicidal effect rating, B: Japanese bulrush (Japanese bulrush) | herbicidal effect on O: lambsquarters (lambsquarters) | herbicidal effect on K: Italian ryegrass (Italian ryegrass [8]) | F: southern crabgrass, herbicidal effect rating (southern crabgrass [2]) | N: redroot pigweed, herbicidal effect rating (redroot pigweed [4]) | J: blackgrass, herbicidal effect rating (blackgrass) | R: persian speedwell, herbicidal effect rating (persian speedwell [6]) | P: chickweed, herbicidal effect rating (chickweed) | G: green foxtail, herbicidal effect rating (green foxtail) | K: Italian ryegrass, herbicidal effect rating (Italian ryegrass [7]) | herbicidal effect on F: southern crabgrass (criteria 0-5) (southern crabgrass [1]) | herbicidal effect on R: persian speedwell (criteria 0-5) (persian speedwell [3]) | herbicidal effect on N: redroot pigweed (criteria 0-5) (redroot pigweed [5]) | herbicidal effect on H: barnyard grass (criteria 0-5) (barnyard grass) | further results |
| --- | --- | --- | --- | --- | --- | --- | --- | --- | --- | --- | --- | --- | --- | --- | --- | --- | --- | --- | --- | --- | --- |
| Cc1nn(C)c(=O)c(-c2c(-c3ccc4c(c3)OCCO4)sc3ccc(F)cc23)c1O [2-092] | 4 (Herbicidal rate of 70% or more and less than 90%) | 5 (Herbicidal rate of 90% or more (almost completely withered)) | 5 (Herbicidal rate of 90% or more (almost completely withered)) | 4 (Herbicidal rate of 70% or more and less than 90%) | 5 (Herbicidal rate of 90% or more (almost completely withered)) | 2 (Herbicidal rate of 20% or more and less than 40%) | 3 (Herbicidal rate of 40% or more and less than 70%) | 5 (Herbicidal rate of 90% or more (almost completely withered)) | 4 (Herbicidal rate of 70% or more and less than 90%) |  |  |  |  |  |  |  |  |  |  |  | herbicidal effect rating, F: southern crabgrass (southern crabgrass [2]; 320 g/ha): 2 (Herbicidal rate of 20% or more and less than 40%); herbicidal effect rating, N: redroot pigweed (redroot pigweed [4]; 320 g/ha): 4 (Herbicidal rate of 70% or more and less than 90%); herbicidal effect rating, J: blackgrass (blackgrass; 320 g/ha): 0 (Herbicidal rate of 5% or less (almost no effect)); herbicidal effect rating, R: persian speedwell (persian speedwell [6]; 320 g/ha): 5 (Herbicidal rate of 90% or more (almost completely withered)); herbicidal effect rating, P: chickweed (chickweed; 320 g/ha): 4 (Herbicidal rate of 70% or more and less than 90%); herbicidal effect rating, G: green foxtail (green foxtail; 320 g/ha): 2 (Herbicidal rate of 20% or more and less than 40%); herbicidal effect rating, K: Italian ryegrass (Italian ryegrass [7]; 320 g/ha): 1 (Herbicidal rate of 5% or more and less than 20%) |
| Cc1nn(C)c(=O)c(-c2c(-c3ccc(C(F)(F)F)cc3)sc3ccc(Cl)cc23)c1O [2-111] | 0 (Herbicidal rate of 5% or less (almost no effect)) | 5 (Herbicidal rate of 90% or more (almost completely withered)) | 5 (Herbicidal rate of 90% or more (almost completely withered)) | 0 (Herbicidal rate of 5% or less (almost no effect)) | 4 (Herbicidal rate of 70% or more and less than 90%) | 3 (Herbicidal rate of 40% or more and less than 70%) | 1 (Herbicidal rate of 5% or more and less than 20%) | 3 (Herbicidal rate of 40% or more and less than 70%) | 3 (Herbicidal rate of 40% or more and less than 70%) | 0 (Herbicidal rate of 5% or less (almost no effect)) | 5 (Herbicidal rate of 90% or more (almost completely withered)) | 5 (Herbicidal rate of 90% or more (almost completely withered)) | 5 (Herbicidal rate of 90% or more (almost completely withered)) | 0 (Herbicidal rate of 5% or less (almost no effect)) | 0 (Herbicidal rate of 5% or less (almost no effect)) | 3 (Herbicidal rate of 40% or more and less than 70%) |  |  |  |  |  |
| CCCC(=O)Oc1c(C)nn(C)c(=O)c1-c1c(-c2ccccc2OC)sc2ccc(C)cc12 [2-139] | 3 (Herbicidal rate of 40% or more and less than 70%) | 4 (Herbicidal rate of 70% or more and less than 90%) | 4 (Herbicidal rate of 70% or more and less than 90%) | 0 (Herbicidal rate of 5% or less (almost no effect)) | 4 (Herbicidal rate of 70% or more and less than 90%) | 4 (Herbicidal rate of 70% or more and less than 90%) | 3 (Herbicidal rate of 40% or more and less than 70%) | 3 (Herbicidal rate of 40% or more and less than 70%) | 1 (Herbicidal rate of 5% or more and less than 20%) | 0 (Herbicidal rate of 5% or less (almost no effect)) | 0 (Herbicidal rate of 5% or less (almost no effect)) | 1 (Herbicidal rate of 5% or more and less than 20%) | 4 (Herbicidal rate of 70% or more and less than 90%) | 5 (Herbicidal rate of 90% or more (almost completely withered)) | 0 (Herbicidal rate of 5% or less (almost no effect)) | 1 (Herbicidal rate of 5% or more and less than 20%) |  |  |  |  |  |
| C=Cc1ccc2sc(-c3ccccc3OC)c(-c3c(O)c(C)nn(C)c3=O)c2c1 [2-185] |  |  |  | 0 (Herbicidal rate of 5% or less (almost no effect)) |  | 0 (Herbicidal rate of 5% or less (almost no effect)) | 0 (Herbicidal rate of 5% or less (almost no effect)) |  |  | 0 (Herbicidal rate of 5% or less (almost no effect)) | 5 (Herbicidal rate of 90% or more (almost completely withered)) | 0 (Herbicidal rate of 5% or less (almost no effect)) | 0 (Herbicidal rate of 5% or less (almost no effect)) | 0 (Herbicidal rate of 5% or less (almost no effect)) | 0 (Herbicidal rate of 5% or less (almost no effect)) | 0 (Herbicidal rate of 5% or less (almost no effect)) | 2 (Herbicidal rate of 20% or more and less than 40%) | 4 (Herbicidal rate of 70% or more and less than 90%) | 5 (Herbicidal rate of 90% or more (almost completely withered)) | 0 (Herbicidal rate of 5% or less (almost no effect)) | herbicidal effect on O: lambsquarters (criteria 0-5) (lambsquarters): 4 (Herbicidal rate of 70% or more and less than 90%); herbicidal effect on K: Italian ryegrass (criteria 0-5) (Italian ryegrass [8]): 0 (Herbicidal rate of 5% or less (almost no effect)) |
| Cc1nn(C)c(=O)c(-c2c(-c3ccccc3)sc3ccc(F)cc23)c1O [2-197] |  |  |  | 4 (Herbicidal rate of 70% or more and less than 90%) |  | 3 (Herbicidal rate of 40% or more and less than 70%) | 3 (Herbicidal rate of 40% or more and less than 70%) |  |  | 4 (Herbicidal rate of 70% or more and less than 90%) | 5 (Herbicidal rate of 90% or more (almost completely withered)) | 3 (Herbicidal rate of 40% or more and less than 70%) | 3 (Herbicidal rate of 40% or more and less than 70%) | 3 (Herbicidal rate of 40% or more and less than 70%) | 4 (Herbicidal rate of 70% or more and less than 90%) | 4 (Herbicidal rate of 70% or more and less than 90%) | 5 (Herbicidal rate of 90% or more (almost completely withered)) | 5 (Herbicidal rate of 90% or more (almost completely withered)) | 5 (Herbicidal rate of 90% or more (almost completely withered)) | 5 (Herbicidal rate of 90% or more (almost completely withered)) | herbicidal effect on O: lambsquarters (criteria 0-5) (lambsquarters): 5 (Herbicidal rate of 90% or more (almost completely withered)); herbicidal effect on K: Italian ryegrass (criteria 0-5) (Italian ryegrass [8]): 4 (Herbicidal rate of 70% or more and less than 90%) |
